# Values quoted from earlier work in patent US20230218693A1, “HEMP SPROUT PRODUCTS AND METHODS FOR PRODUCING SAME” (priority 2020, published 2023).
# Where two headings read alike, the source gives them in different places.
# Assays:
# COX-1 [1] = biological target: T1, COX-1 (Homo sapiens, UniProt P23219); conditions: COX-1, platelets
# T1 construct: endogenous in cells; host or cells: freshly isolated human blood cells (platelets, according to the assay name)
# COX-1 [2] = tested on: COX-1
# COX-2 [3] = biological target: T2, COX-2 (Homo sapiens, UniProt P35354)
# T2 sequence (P35354 18-604): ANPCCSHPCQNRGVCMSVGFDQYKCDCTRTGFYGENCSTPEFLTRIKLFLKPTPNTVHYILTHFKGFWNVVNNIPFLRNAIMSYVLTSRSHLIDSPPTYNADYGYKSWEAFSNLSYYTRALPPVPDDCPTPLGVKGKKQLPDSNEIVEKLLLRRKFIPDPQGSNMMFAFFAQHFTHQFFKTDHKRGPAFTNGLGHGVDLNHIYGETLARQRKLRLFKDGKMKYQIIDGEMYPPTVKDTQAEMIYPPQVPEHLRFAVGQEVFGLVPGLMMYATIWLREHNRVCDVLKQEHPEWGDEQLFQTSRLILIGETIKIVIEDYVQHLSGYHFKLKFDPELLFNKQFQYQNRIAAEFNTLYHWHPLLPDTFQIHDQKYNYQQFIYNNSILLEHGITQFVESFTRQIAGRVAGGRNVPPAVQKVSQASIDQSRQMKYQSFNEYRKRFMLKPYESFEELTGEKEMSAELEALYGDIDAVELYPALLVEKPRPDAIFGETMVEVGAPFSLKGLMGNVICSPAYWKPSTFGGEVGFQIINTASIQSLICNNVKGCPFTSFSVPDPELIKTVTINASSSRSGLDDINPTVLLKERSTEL
# cPLA2 = biological target: T3, cPLA2 (Homo sapiens, UniProt P47712); conditions: cPLA2, cell-free
# T3 sequence (P47712 1-749): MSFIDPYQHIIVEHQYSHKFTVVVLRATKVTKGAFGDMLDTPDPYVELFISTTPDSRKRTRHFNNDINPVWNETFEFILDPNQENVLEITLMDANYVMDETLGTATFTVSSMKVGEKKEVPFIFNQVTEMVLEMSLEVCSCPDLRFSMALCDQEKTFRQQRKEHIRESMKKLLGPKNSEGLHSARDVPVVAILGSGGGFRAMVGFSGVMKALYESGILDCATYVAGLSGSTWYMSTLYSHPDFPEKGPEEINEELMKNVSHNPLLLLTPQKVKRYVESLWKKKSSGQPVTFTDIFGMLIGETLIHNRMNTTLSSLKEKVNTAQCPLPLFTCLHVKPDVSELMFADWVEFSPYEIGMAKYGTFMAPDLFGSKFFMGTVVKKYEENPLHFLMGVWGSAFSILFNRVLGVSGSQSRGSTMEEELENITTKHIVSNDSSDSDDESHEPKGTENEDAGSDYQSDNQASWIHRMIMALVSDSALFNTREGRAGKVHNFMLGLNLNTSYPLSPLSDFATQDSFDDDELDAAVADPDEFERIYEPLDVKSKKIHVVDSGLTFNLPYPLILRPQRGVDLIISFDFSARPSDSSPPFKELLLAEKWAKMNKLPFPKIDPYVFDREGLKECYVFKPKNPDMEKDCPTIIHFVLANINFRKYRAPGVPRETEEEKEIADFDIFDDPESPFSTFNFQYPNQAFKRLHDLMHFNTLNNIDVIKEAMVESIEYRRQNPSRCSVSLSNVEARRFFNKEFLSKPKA
# mPGES-1 = biological target: T4, mPGES-1 (Homo sapiens, UniProt O14684)
# T4 sequence (O14684 1-152): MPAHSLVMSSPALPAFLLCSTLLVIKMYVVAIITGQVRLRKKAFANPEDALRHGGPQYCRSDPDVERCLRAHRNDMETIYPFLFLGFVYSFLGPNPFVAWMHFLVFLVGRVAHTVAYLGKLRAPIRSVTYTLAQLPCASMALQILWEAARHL
# 5-LO [4] = biological target: T5, 5-LO (Homo sapiens, UniProt P09917); conditions: 5-LO cell-free
# T5 sequence (P09917 1-674): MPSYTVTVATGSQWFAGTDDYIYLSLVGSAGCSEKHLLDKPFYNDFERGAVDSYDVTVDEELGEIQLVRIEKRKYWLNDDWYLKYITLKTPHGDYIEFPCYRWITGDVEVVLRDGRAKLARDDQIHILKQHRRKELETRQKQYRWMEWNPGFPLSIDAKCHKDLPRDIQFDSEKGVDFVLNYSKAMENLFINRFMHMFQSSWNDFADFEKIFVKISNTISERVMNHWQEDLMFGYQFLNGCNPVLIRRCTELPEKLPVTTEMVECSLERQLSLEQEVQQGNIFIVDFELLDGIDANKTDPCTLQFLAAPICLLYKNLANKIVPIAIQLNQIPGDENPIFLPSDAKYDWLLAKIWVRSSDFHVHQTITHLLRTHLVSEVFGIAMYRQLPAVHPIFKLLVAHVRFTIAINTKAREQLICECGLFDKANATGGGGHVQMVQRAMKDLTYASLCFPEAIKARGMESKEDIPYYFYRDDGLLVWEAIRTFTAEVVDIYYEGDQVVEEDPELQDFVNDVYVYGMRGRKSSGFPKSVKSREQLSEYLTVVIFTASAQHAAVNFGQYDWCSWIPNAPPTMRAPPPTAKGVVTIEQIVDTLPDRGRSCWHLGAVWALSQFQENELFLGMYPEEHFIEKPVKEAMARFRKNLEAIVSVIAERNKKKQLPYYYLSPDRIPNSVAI
# [5] = tested on: freshly isolated human blood cells; conditions: for Effect on cell viability: human cells
# PGE2 = conditions: result in words
# COX-2 [6] = biological target: T2, COX-2; parameters: endogenous in cells; host or cells: freshly isolated human monocytes; conditions: COX-2, monocytes
# 5-LO [7] = biological target: T5, 5-LO; parameters: endogenous in cells; host or cells: freshly isolated human neutrophils (PMNL); conditions: PMNL
# 5-LO [8] = biological target: T5, 5-LO; parameters: endogenous in cells; host or cells: freshly isolated human neutrophils (PMNL); conditions: PMNL, A23187 + AA
# [9] = result in words
# [10] = result in words; remark: listed apart in the source
# [11] = tested on: HepG2 human hepatic carcinoma cells; conditions: dose-dependently up to 500 μM
# T1 sequence (P23219 24-599): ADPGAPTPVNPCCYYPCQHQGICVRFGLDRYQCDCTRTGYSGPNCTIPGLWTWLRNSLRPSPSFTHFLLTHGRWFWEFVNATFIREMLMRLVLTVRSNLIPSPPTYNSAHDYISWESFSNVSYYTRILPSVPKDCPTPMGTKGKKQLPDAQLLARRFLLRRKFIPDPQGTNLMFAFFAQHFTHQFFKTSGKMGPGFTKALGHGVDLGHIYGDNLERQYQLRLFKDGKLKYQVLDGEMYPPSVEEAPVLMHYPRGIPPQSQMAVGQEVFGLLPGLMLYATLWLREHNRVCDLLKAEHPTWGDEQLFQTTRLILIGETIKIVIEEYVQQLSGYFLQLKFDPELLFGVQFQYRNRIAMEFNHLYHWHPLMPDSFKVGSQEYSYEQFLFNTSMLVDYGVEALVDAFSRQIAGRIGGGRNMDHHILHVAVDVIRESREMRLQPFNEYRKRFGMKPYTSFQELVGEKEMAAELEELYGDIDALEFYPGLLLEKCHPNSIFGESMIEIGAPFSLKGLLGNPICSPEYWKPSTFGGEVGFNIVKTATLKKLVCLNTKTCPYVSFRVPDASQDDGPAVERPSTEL
smiles,measurement,setting,value
"COc1cc(-c2cc(=O)c3c(O)c(C/C=C(\C)CCC=C(C)C)c(O)cc3o2)ccc1O [CFA, Cannflavin A]",% inhibition at 10 μM,"COX-1 [1]; 10 μM, vs vehicle (0.1% DMSO)",26 ± 2%
same,IC50,"COX-1 [1]; added 15 min prior induction, read-out: CFA(1) IC50",> 10000 nM
same,% inhibition at 10 μM,"COX-1 [2]; COX-1, cell-free, 10 μM",36 ± 2%
same,IC50,"COX-1 [2]; COX-1, cell-free, read-out: CFA(1) IC50",> 10000 nM
same,Inhibition of COX-1,COX-1 [2]; result in words,did not significantly inhibit COX-1
same,% inhibition at 10 μM,"COX-2 [3]; COX-2, cell-free, 10 μM",35 ± 12%
same,IC50,"COX-2 [3]; COX-2, cell-free, read-out: CFA(1) IC50",> 10000 nM
same,Inhibition of COX-2,COX-2 [3]; result in words,did not significantly inhibit COX-2
same,% inhibition at 10 μM,cPLA2; 10 μM,26 ± 8%
same,IC50,cPLA2; read-out: CFA(1) IC50,> 10000 nM
same,% inhibition at 10 μM,"mPGES-1; mPGES-1, cell-free, 10 μM",90 ± 1%
same,IC50,"mPGES-1; mPGES-1, cell-free, read-out: CFA(1) IC50",1800 nM
same,Inhibition of mPGES-1,mPGES-1; result in words,directly inhibited mPGES-1
same,% inhibition at 10 μM,5-LO [4]; 10 μM,88 ± 3%
same,IC50,5-LO [4]; read-out: CFA(1) IC50,900 nM
same,Effect in DPPH assay (antioxidant activity),,No effect
same,Effect in DPPH assay (antioxidant activity),listed as cannflavin A,did not demonstrate innate antioxidant activity
same,Effect on cell viability,[5],no effect
same,Effect on cell viability,[5]; listed as cannflavin A,no deleterious effects on human cell viability
same,Cytotoxicity,[5]; result in words,no evidence of cytotoxicity
same,Suppression of PGE2,PGE2,suppressed PGE2
same,% inhibition at 10 μM,COX-2 [6]; 10 μM,56 ± 8%
same,IC50,COX-2 [6]; read-out: CFA(1) IC50,8800 nM
same,% inhibition at 10 μM,"5-LO [7]; A23187, 10 μM",98 ± 2%
same,IC50,"5-LO [7]; A23187, read-out: CFA(1) IC50",2400 nM
same,% inhibition at 10 μM,5-LO [8]; 10 μM,91 ± 1%
same,IC50,5-LO [8]; read-out: CFA(1) IC50,1600 nM
"COc1ccc2c(c1)c(CC(=O)O)c(C)n2C(=O)c1ccc(Cl)cc1 [Indomethacin, reference compound]","Reference control, % inhibition at indic. conc.","COX-1 [2]; COX-1, cell-free, 20 μM","Indomethacin (20 μM), 81 ± 8%"
"CC(c1cc2ccccc2s1)N(O)C(N)=O (stereo not shown) [Zileuton, reference compound]","Reference control, % inhibition at indic. conc.",5-LO [4]; 3 μM,"Zileuton (3 μM), 80 ± 4%"
O=C(/C=C/c1ccc(O)c(O)c1)NCCc1ccc(O)cc1 [caffeoyltyramine],Antioxidant activity against DPPH radicals,[9],demonstrated antioxidant activity against DPPH radicals
same,Inhibition of human LDL oxidation,[10],prominent inhibition of human LDL oxidation
O=C(NCCc1ccc(O)cc1)C1=Cc2cc(O)c(O)cc2[C@H](c2ccc(O)c(O)c2)[C@H]1C(=O)NCCc1ccc(O)cc1 [cannabisin B],Antioxidant activity against DPPH radicals,[9],demonstrated antioxidant activity against DPPH radicals
same,Inhibition of human LDL oxidation,[10],prominent inhibition of human LDL oxidation
same,Antiproliferative effects in HepG2 cells,[11],produced antiproliferative effects
